Tests used:
EGFR = assay: Immunoblot, EGFR expression in PC9 cells; assay type: cell-based; settings: 3 days, sorafenib 5 μM or SC-1 20 μM, FIG. 11B
Description: The fraction of the EGFR-T790T and EGFR-T790M barcodes was assessed by qPCR and normalized to the total amount of gDNA using EGFR_Ctrl primers.

kinase = settings: cited from earlier work
[1] = test system: EGFR wild-type NSCLC cell lines; settings: Wang et al 2014; cited from earlier work
[2] = test system: EGFR-wild type NSCLC cells; settings: different cell models, including EGFR-wild type NSCLC cells; Su et al., 2015; Wang et al., 2014; cited from earlier work
STAT3 phosphorylation [3] = settings: different cell models, including EGFR-wild type NSCLC cells; Su et al., 2015; Wang et al., 2014; cited from earlier work
STAT3 phosphorylation [4] = assay: Immunoblot, STAT3 phosphorylation in PC9 cells; assay type: cell-based; settings: for STATS phosphorylation: PC9 cells, 3 days, sorafenib 5 μM or SC-1 20 μM, FIG. 11B
Description: (§1) Immunoblot was performed using the indicated antibodies.
FIG. 11: SC-1 prevents resistance of NSCLC cells to EGFR TKI. […] The mean values (±SEM) representative of four independent experiments are represented. (B).
(§2) Cells were washed once with phosphate-buffered saline (PBS) and lysed on ice in a buffer containing 50 mM Hepes pH 7.6, 150 mM NaCl, 5 mM EDTA, 1% Nonidet P-40, 20 mM NAF, 2 mM sodium orthovanadate, supplemented with protease inhibitor mini tablets (Thermo Scientific). Lysates were cleared by centrifugation at 14,000 g during 15 min at 4° C. and protein concentrations were determined by using the Bradford protein assay (Bio-Rad). Sodium dodecyl sulfate (SDS) loading buffer was added to equal amounts of lysate, followed by SDS-polyacrylamide gel electrophoresis (SDS-PAGE) and transfer to polyvinylidene fluoride (PVDF) membrane (Thermo Scientific). Membranes were analyzed by chemiluminescence using a ChemiDoc imaging system (Biorad). All primary antibodies were purchased from Cell Signaling. Secondary antibodies were purchased from Santa Cruz.

breast cancer cell lines = settings: Liu et al. 2013; cited from earlier work
[5] = test system: PC9 cells containing the EGFR-T790M mutation; assay: CRISPR-barcoding qPCR: fraction of EGFR-T790M barcode in PC9 cells in the presence of gefitinib; assay type: cell-based; settings: SC-1 20 μM, gefitinib 1 μM, 5 days; FIG. 11A
Excerpt: (§3) Cells were transfected with a Nucleofector II device (Lonza) using the Amaxa Nucleofector kit (Lonza) and electroporation program recommended by the manufacturer.
(§4) The set of silent mutations is designed to enable PCR specificity and to avoid recognition by the corresponding sgRNA used to cleave the endogenous sequence. […] Immediately after transfection, the cells were pooled in the same flask.
(§5) gDNA was extracted using the NucleoSpin Tissue kit (Macherey-Nagel). To avoid potential amplification from ssODN molecules not integrated in the correct genomic locus, one of the two primers was designed to target the endogenous genomic sequence flanking the region sharing homology with the ssODNs.
as §3, §4

NSCLC [6] = settings: treatment of NSCLC; Shepherd et al 2005; cited from earlier work
[7] = test system: EGFR-C797S cells within PC9-(EGFR-T790M) cells; assay: CRISPR-barcoding qPCR: EGFR-C797S barcode in PC9-(EGFR-T790M) cells; assay type: cell-based; settings: osimertinib 1 μM alone, nine days; FIG. 3A
Excerpt: as §4, §5

[8] = test system: EGFR-C797S cells within PC9-(EGFR-T790M) cells; assay: Colony forming assay, EGFR-C797S barcoded PC9-(EGFR-T790M) cells; assay type: cell-based; settings: osimertinib 1 μM alone, 14 days; FIG. 3B
[9] = test system: parental, EGFR-T790M and EGFR-T790M/C797S PC9 cells
[10] = test system: EGFR-T790M PC9 cells containing the EGFR-C797S CRISPR-barcode; settings: mouse, in vivo
Description: From day 39, the mice were treated three times per week. The mean tumor size ±SEM is represented for the different groups (5 mice per group).
The proportions of the barcode in the cells prior to mouse injection was analyzed in parallel and arbitrarily set to 1. (B) For each group, the mean of the values (±SEM) shown in A is represented.
Gefitinib resistant PC9 cells (EGFR-T790M) containing the EGFR-C797 CRISPR-barcodes were mixed with matrigel and subcutaneously inoculated in the left and right flank (2×10^6 cells per site) of male SCID mice. The size of the tumors was measured by caliper every 3-4 days. […] From day 39, the mice were treated three times per week. Tumors from sacrificed mice were dissected, and gDNA was derived using the DNeasy Blood & Tissue Kit (Qiagen).

NSCLC [11] = settings: first-line treatment; Soria et al. 2018; cited from earlier work
MAPK activation = assay: Immunoblot, MAPK activation in PC9 cells; assay type: cell-based; settings: sorafenib 5 μM, 2 or 6 hours; FIG. 4A
Description: as §1, §2

MYC transcription factor = assay: Immunoblot, MYC expression in PC9 cells; assay type: cell-based; settings: sorafenib 5 μM, two days; parental and EGFR-T790M PC9 cells; FIG. 4B
Description: as §1, §2

N#Cc1ccc(Oc2ccc(NC(=O)Nc3ccc(Cl)c(C(F)(F)F)c3)cc2)cc1 [SC-1, N-[4-Chloro-3-(trifluoromethyl)phenyl]-N′-[4-(4-cyanophenoxy)phenyl]-urea]
EGFR expression (EGFR): down-regulated | kinase-inhibition activity (kinase): no kinase-inhibition activity | apoptosis [1]: induces apoptosis | growth inhibition [2]: growth inhibition | pSTAT3 inhibition (STAT3 phosphorylation [3]): pSTAT3 inhibition | STATS phosphorylation (STAT3 phosphorylation [4]): inhibited | apoptosis (breast cancer cell lines): induces apoptosis | amplification of EGFR-T790M containing cells in the presence of gefitinib (qPCR) [5]: could mimic the effects of sorafenib

C#Cc1cccc(Nc2ncnc3cc(OCCOC)c(OCCOC)cc23)c1 [erlotinib]
clinical response rate (NSCLC [6]): about 8.9%

C=CC(=O)Nc1cc(Nc2nccc(-c3cn(C)c4ccccc34)n2)c(OC)cc1N(C)CCN(C)C [osimertinib]
amplification of EGFR-C797S cells (qPCR) [7]: induced a strong amplification | amplification of EGFR-C797S cells (colony forming assay) [8]: induced a strong amplification | cell growth (colony forming assay) [9]: inhibited cell growth | growth of the tumors / tumor size [10]: initially inhibited, but it eventually resumed after a few weeks | adverse effects compared to first/second generation TKIs (NSCLC [11]): less severe adverse effects | efficacy compared to first/second generation TKIs (NSCLC [11]): superior efficacy

CNC(=O)c1cc(Oc2ccc(NC(=O)Nc3ccc(Cl)c(C(F)(F)F)c3)cc2)ccn1 [sorafenib]
MAPK activation (MAPK activation): no effect | STATS phosphorylation (STAT3 phosphorylation [4]): inhibited | STAT3 phosphorylation (STAT3 phosphorylation [4]; sorafenib 5 μM, 2 or 6 hours, FIG. 4): rapid inhibition | expression of MYC transcription factor (MYC transcription factor): down-regulated
